The source of these data is patent US20240270759A1, “Preparation of SHP2 phosphatase inhibitors and its applications” (Ya Therapeutics Inc, priority 2021, published 2024).

The structures appear in SMILES notation. Bounds are passed on as bounds.

The experiment addresses T1, SHP2 full-length protein (Homo sapiens, UniProt Q06124).
T1 construct: purchased BPS Bioscience #79330
T1 sequence (Q06124 1-593): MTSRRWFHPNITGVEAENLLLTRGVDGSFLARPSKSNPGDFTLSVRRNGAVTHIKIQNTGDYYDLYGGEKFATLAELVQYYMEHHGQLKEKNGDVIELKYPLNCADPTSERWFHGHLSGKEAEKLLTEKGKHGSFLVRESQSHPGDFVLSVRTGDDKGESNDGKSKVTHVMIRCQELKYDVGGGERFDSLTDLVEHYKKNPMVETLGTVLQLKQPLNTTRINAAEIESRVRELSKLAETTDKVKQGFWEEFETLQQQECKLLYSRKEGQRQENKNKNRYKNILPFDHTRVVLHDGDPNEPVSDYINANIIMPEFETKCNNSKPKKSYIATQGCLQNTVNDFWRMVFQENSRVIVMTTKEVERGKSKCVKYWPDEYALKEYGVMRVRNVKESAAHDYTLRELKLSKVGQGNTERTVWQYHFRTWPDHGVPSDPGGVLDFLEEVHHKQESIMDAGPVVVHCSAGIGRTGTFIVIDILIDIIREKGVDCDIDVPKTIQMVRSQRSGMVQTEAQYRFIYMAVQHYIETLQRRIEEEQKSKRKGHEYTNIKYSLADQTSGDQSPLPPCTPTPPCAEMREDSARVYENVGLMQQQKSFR
In words: SHP2 allosteric inhibition experiment (Homogeneous Full Length SHP-2 Assay Kit). Format: biochemical. Conditions: full-length SHP2 0.06 nM with SHP-2 activating peptide; ten-point, 1 μM to 0.05 nM; read-out: IC50 Values of Compounds Inhibiting SHP2.
Consider `C[C@@H]1OCC2(CCN(c3ncc(Sc4cccc(NC(=O)c5ccncn5)c4Cl)cn3)CC2)[C@@H]1N` [Compound 124, N-(3-((2-((3S,4S)-4-amino-3-methyl-2-oxa-8-azaspiro[4.5]decane-8-yl of 1)pyrimidine-5-yl)mercapto)-2-chlorophenyl)pyrimidine-4-carboxamide], for which the IC50 was no more than 10 nM. Turning to `CCn1ccc(-c2cccc(Sc3cnc(N4CCC5(CC4)CO[C@@H](C)[C@H]5N)nc3)c2Cl)n1` [Compound 112, (3S,4S)-8-(5-((2-chloro-3-(1-ethyl-1H-pyrazole-3-yl)phenyl)mercapto)pyrimidine-2-yl)-3-methyl-2-oxa-8-azaspiro[4.5]decane-4-amine], the IC50 lay in the range of 10 to 100 nM. In the case of `CC(C)n1ccc(-c2cccc(Sc3cnc(N4CCC5(CC4)CO[C@@H](C)[C@H]5N)nc3)c2Cl)n1` [Compound 113, (3S,4S)-8-(5-((2-chloro-3-(1-isopropyl-1H-pyrazole-3-yl)phenyl)mercapto)pyrimidine-2-yl)-3-methyl-2-oxa-8-azaspiro[4.5]decane-4-amine], the half-maximal inhibitory concentration (IC50) is 10 to 100 nM. With `C[C@@H]1OCC2(CCN(c3ncc(Sc4cccc(-c5cnccn5)c4Cl)cn3)CC2)[C@@H]1N` [Compound 116, (3S,4S)-8-(5-((2-chloro-3-(pyrazine-2-yl)phenyl)mercapto)pyrimidine-2-yl)-3-methyl-2-oxa-8-azaspiro[4.5]decane-4-amine], the IC50 was no more than 10 nM. For the compound `C[C@@H]1OCC2(CCN(c3cnc(Sc4cccc(-c5ccn(C)n5)c4Cl)nc3)CC2)[C@@H]1N` [Compound 99, (3S,4S)-8-(2-((2-chloro-3-(1-methyl-1H-pyrazole-3-yl)phenyl)mercapto)pyrimidine-5-yl)-3-methyl-2-oxa-8-azaspiro[4.5]decane-4-amine], the IC50 is no more than 10 nM. For the compound `C[C@@H]1OCC2(CCN(c3ncc(Sc4cccc(Nc5cnccn5)c4Cl)cn3)CC2)[C@@H]1N` [Compound 121, (3S,4S)-8-(5-((2-chloro-3-(pyrazine-2-amino)phenyl)mercapto)pyrimidine-2-yl)-3-me thyl-2-oxa-8-azaspiro[4.5]decane-4-amine], the IC50 was no more than 10 nM.

`C[C@@H]1OCC2(CCN(c3ncc4nc(Sc5cccc(-c6ccn(C)n6)c5Cl)cnc4n3)CC2)[C@@H]1N` [Compound 64, (3S,4S)-8-(6-((2-chloro-3-(1-methyl-1H-pyrazole-3-yl)phenyl)mercapto)pteridine-2-y 1)-3-methyl-2-oxa-8-azaspiro[4.5]decane-4-amine]: the IC50 is no more than 10 nM. As to `C[C@@H]1OCC2(CCN(c3cnc(Sc4cccc(Nc5ccncn5)c4Cl)nc3)CC2)[C@@H]1N` [Compound 110, (3S,4S)-8-(2-((2-chloro-3-(pyrimidine-4-amino)phenyl)mercapto)pyrimidine-5-yl)-3-methyl-2-oxa-8-azaspiro[4.5]decane-4-amine], the IC50 was in the range of 10 to 100 nM. For `C[C@@H]1OCC2(CCN(c3ncc4nc(Sc5cccc(-c6ccncn6)c5Cl)cnc4n3)CC2)[C@@H]1N` [Compound 76, (3S,4S)-8-(6-((2-chloro-3-(pyrimidine-4-yl)phenyl)mercapto)pteridine-2-yl)-3-methyl-2-oxa-8-azaspiro[4.5]decane-4-amine], the IC50 is no more than 10 nM. For the compound `C[C@@H]1OCC2(CCN(c3ccc4nc(Sc5cccc(NC(=O)c6ccncn6)c5Cl)ncc4n3)CC2)[C@@H]1N` [Compound 83, N-(3-((6-((3S,4S)-4-amino-3-methyl-2-oxa-8-azaspiro[4.5]decane-8-yl)pyridinyl[3,2-d]pyrimidine-2-yl)mercapto)-2-chlorophenyl)pyrimidine-4-carboxamide], the IC50 is no more than 10 nM. The value for `NC1COCC12CCN(c1ccc3c(=O)n(-c4cccc(Cl)c4Cl)c(=O)[nH]c3c1)CC2` (stereo in doubt) [Compound 2, (S)-7-(4-amino-2-oxa-8-azaspiro[4.5]decane-8-yl)-3-(2,3-dichlorophenyl)quinazoline-2,4(1H,3H)-dione] was no more than 10 nM. Consider `C[C@@H]1OCC2(CCN(c3ncc(Sc4cccc(-c5cnccn5)c4Cl)nn3)CC2)[C@@H]1N` [Compound 135, (3S,4S)-8-(6-((2-chloro-3-(pyrazine-2-yl)phenyl)mercapto)-1,2,4-triazine-3-yl)-3-methyl-2-oxa-8-azaspiro[4.5]decane-4-amine], for which the IC50 was no more than 10 nM. As to `CCn1ccc(-c2cccc(Sc3cnc(N4CCC5(CC4)CO[C@@H](C)[C@H]5N)nn3)c2Cl)n1` [Compound 131, (3S,4S)-8-(6-((2-chloro-3-(1-ethyl-1H-pyrazole-3-yl)phenyl)mercapto)-1,2,4-triazine-3-yl)-3-methyl-2-oxa-8-azaspiro[4.5]decane-4-amine], the IC50 is no more than 10 nM. The figure for `C[C@@H]1OCC2(CCN(c3cnc4nc(Sc5cccc(NC(=O)c6cnccn6)c5Cl)ncc4n3)CC2)[C@@H]1N` [Compound 84, N-(3-((6-((3S,4S)-4-amino-3-methyl-2-oxa-8-azaspiro[4.5]decane-8-yl)pteridine-2-yl)mercapto)-2-chlorophenyl)pyrazine-2-carboxamide] is no more than 10 nM; for `C[C@@H]1OCC2(CCN(c3cnc(Sc4cccc(-c5cncnc5)c4Cl)nc3)CC2)[C@@H]1N` [Compound 103, (3S,4S)-8-(2-((2-chloro-3-(pyrimidine-5-yl)phenyl)mercapto)pyrimidine-5-yl)-3-methyl-2-oxa-8-azaspiro[4.5]decane-4-amine] it is no more than 10 nM. Consider `C[C@@H]1OCC2(CCN(c3cnc(Sc4cccc(-c5ccncn5)c4Cl)nc3)CC2)[C@@H]1N` [Compound 106, (3S,4S)-8-(2-((2-chloro-3-(pyrimidine-4-yl)phenyl)mercapto)pyrimidine-5-yl)-3-methyl-2-oxa-8-azaspiro[4.5]decane-4-amine], for which the IC50 was no more than 10 nM. In the case of `N[C@H]1c2ccncc2CC12CCN(c1ccc3c(=O)n(-c4cccc(Cl)c4Cl)c(=O)[nH]c3c1)CC2` [Compound 5, (S)-7-(5-Amino-5,7-dihydrospiro[cyclopenta[c]pyridine-6,4′-piperidine]-1′-yl)-3-(2,3-dichlorophenyl)auinazoline-2.4(1H,3H)-dione], the IC50 was no more than 10 nM. For the compound `C[C@@H]1OCC2(CCN(c3ncc4nc(Sc5cccc(NC(=O)c6cnccn6)c5Cl)cnc4n3)CC2)[C@@H]1N` [Compound 85, N-(3-((2-((3S,4S)-4-amino-3-methyl-2-oxa-8-azaspiro[4.5]decane-8-yl)pteridine-6-yl)mercapto)-2-chlorophenyl)pyrazine-2-carboxamide], the IC50 was no more than 10 nM. As for `C[C@@H]1OCC2(CCN(c3cnc(Sc4cccc(-c5cccnc5)c4Cl)nc3)CC2)[C@@H]1N` [Compound 105, (3S,4S)-8-(2-((2-chloro-3-(pyridine-3-yl)phenyl)mercapto)pyrimidine-5-yl)-3-methyl-2-oxa-8-azaspiro[4.5]decane-4-amine], the IC50 was no more than 10 nM. For the compound `C[C@@H]1OCC2(CCN(c3nnc(Sc4cccc(-c5cnccn5)c4Cl)nn3)CC2)[C@@H]1N` [Compound 133, (3S,4S)-8-(3-((2-chloro-3-(pyrazine-2-yl)phenyl)mercapto)-tetrazine-6-yl)-3-methyl-2-oxa-8-azaspiro[4.5]decane-4-amine], the concentration for half-maximal inhibition (IC50) was no more than 10 nM. Take `C[C@@H]1OCC2(CCN(c3cnc4nc(Sc5cccc(NC(=O)c6c(O)nc7n(c6=O)CCCC7)c5Cl)ncc4n3)CC2)[C@@H]1N` [Compound 87, N-(3-((6-((3S,4S)-4-amino-3-methyl-2-oxa-8-azaspiro[4.5]decane-8-yl)pteridine-2-yl)mercapto)-2-chlorophenyl)-2-hydroxy-4-oxo-6,7,8,9-tetrahydro-4H-pyridinyl[1,2-a]p yrimidine-3-carboxamide]: the IC50 is no more than 10 nM.
